In patent publication US11051515B2, “3-acyl-benzamides and their use as herbicides” (Bayer Aktiengesellschaft, priority 2017, dated 2021):

What was measured:
[1] = system: ABUTH; assay: Post-emergence action against ABUTH; type: in vivo, Abutilon theophrasti; details: post-emergence, dosage 80 g/ha, visual assessment about 3 weeks after treatment vs untreated controls
Description: (§1) Seeds of monocotyledonous and dicotyledonous weed and crop plants are laid out in sandy loam soil in wood-fiber pots, covered with soil and cultivated in a greenhouse under good growth conditions. 2 to 3 weeks after sowing, the test plants are treated at the one-leaf stage. The compounds of the invention, formulated in the form of wettable powders (WP) or as emulsion concentrates (EC), are then sprayed onto the green parts of the plants in the form of an aqueous suspension or emulsion at a water application rate equating to […], with addition of 0.2% wetting agent. After the test plants have been left to stand in the greenhouse under optimal growth conditions for about 3 weeks, the action of the preparations is assessed visually in comparison to untreated controls (herbicidal action in percent (%): 100% activity=the plants have died, 0% activity=like control plants). […] At the same time, inventive compounds leave Gramineae crops such as barley, wheat, rye, millet/Sorghum, corn or rice virtually undamaged when applied post-emergence, even at high active ingredient dosages. In addition, some substances are also harmless to dicotyledonous crops such as soya, cotton, oilseed rape, sugar beet or potatoes. Some of the compounds according to the invention have high selectivity and are therefore suitable for controlling unwanted vegetation in agricultural crops by the post-emergence method. The data of Tables B18 to B34 below illustrate, in an exemplary manner, the […] herbicidal action of the compounds according to the invention, the herbicidal activity being stated in percent.

[2] = system: ECHCG; assay: Post-emergence action against ECHCG; type: in vivo, Echinochloa crus-galli; details: post-emergence, dosage 80 g/ha, visual assessment about 3 weeks after treatment vs untreated controls
Description: as §1

[3] = system: AMARE; assay: Pre-emergence action against AMARE; type: in vivo, Amaranthus retroflexus; details: pre-emergence, dosage 320 g/ha, scored visually after 3 weeks vs untreated controls
Excerpt: (§2) Seeds of monocotyledonous and dicotyledonous weed plants and crop plants are laid out in sandy loam soil in wood-fiber pots and covered with soil. The compounds of the invention, formulated in the form of wettable powders (WP) or as emulsion concentrates (EC), are then applied to the surface of the covering soil in the form of an aqueous suspension or emulsion at a water application rate equating to […], with addition of 0.2% wetting agent. After the treatment, the pots are placed in a greenhouse and kept under good growth conditions for the trial plants. The damage to the test plants is scored visually after a test period of 3 weeks by comparison with untreated controls (herbicidal activity in percent (%): 100% activity=the plants have died, 0% activity=like control plants).

[4] = system: PHBPU; assay: Pre-emergence action against PHBPU; type: in vivo, Pharbitis purpurea; details: Dosage 320 g/ha, pre-emergence
Excerpt: as §2

[5] = system: PHBPU; assay: Post-emergence action against PHBPU; type: in vivo, Pharbitis purpurea; details: post-emergence, dosage 80 g/ha
Description: as §1

[6] = system: VIOTR; assay: Pre-emergence action against VIOTR; type: in vivo, Viola tricolor; details: Dosage 320 g/ha, pre-emergence
Excerpt: as §2

[7] = system: ABUTH; assay: Pre-emergence action against ABUTH; type: in vivo, Abutilon theophrasti; details: pre-emergence, dosage 320 g/ha, scored visually after 3 weeks vs untreated controls
Excerpt: as §2

[8] = system: AMARE; assay: Post-emergence action against AMARE; type: in vivo, Amaranthus retroflexus; details: post-emergence, dosage 80 g/ha, visual assessment about 3 weeks after treatment vs untreated controls
Description: as §1

[9] = system: VIOTR; assay: Post-emergence action against VIOTR; type: in vivo, Viola tricolor; details: post-emergence, dosage 80 g/ha
Description: as §1

[10] = system: MATIN; assay: Pre-emergence action against MATIN; type: in vivo, Matricaria inodora; details: Dosage 320 g/ha, pre-emergence
Excerpt: as §2

[11] = system: STEME; assay: Pre-emergence action against STEME; type: in vivo, Stellaria media; details: Dosage 320 g/ha, pre-emergence
Excerpt: as §2

[12] = system: ECHCG; assay: Pre-emergence action against ECHCG; type: in vivo, Echinochloa crus-galli; details: pre-emergence, dosage 320 g/ha, scored visually after 3 weeks vs untreated controls
Excerpt: as §2

[13] = system: AVEFA; assay: Pre-emergence action against AVEFA; type: in vivo, Avena fatua; details: dosage 320 g/ha, scored visually after 3 weeks vs untreated controls
Excerpt: as §2

[14] = system: MATIN; assay: Post-emergence action against MATIN; type: in vivo, Matricaria inodora; details: post-emergence, dosage 80 g/ha, visual assessment about 3 weeks after treatment vs untreated controls
Description: as §1

[15] = system: STEME; assay: Post-emergence action against STEME; type: in vivo, Stellaria media; details: post-emergence, dosage 80 g/ha
Description: as §1

[16] = system: VERPE; assay: Pre-emergence action against VERPE; type: in vivo, Veronica persica; details: Dosage 320 g/ha, pre-emergence
Excerpt: as §2

[17] = system: VERPE; assay: Post-emergence action against VERPE; type: in vivo, Veronica persica; details: dosage 80 g/ha
Description: as §1

[18] = system: ALOMY; assay: Pre-emergence action against ALOMY; type: in vivo, Alopecurus myosuroides; details: dosage 320 g/ha; pre-emergence; scored visually after 3 weeks vs untreated controls; 100% = plants have died, 0% = like control plants
Excerpt: as §2

[19] = system: SETVI; assay: Pre-emergence action against SETVI; type: in vivo, Setaria viridis; details: pre-emergence, dosage 320 g/ha, scored visually after 3 weeks vs untreated controls
Excerpt: as §2

[20] = system: SETVI; assay: Post-emergence action against SETVI; type: in vivo, Setaria viridis; details: post-emergence, dosage 80 g/ha, visual assessment about 3 weeks after treatment vs untreated controls
Description: as §1

[21] = system: CYPES; assay: Pre-emergence action against CYPES; type: in vivo, Cyperus esculentus; details: pre-emergence, dosage 320 g/ha, scored visually after 3 weeks vs untreated controls
Excerpt: as §2

Row | Compound | Post-emergence action against ABUTH (herbicidal action in percent) [1] | Post-emergence action against ECHCG (herbicidal action in percent) [2] | Pre-emergence action against AMARE (herbicidal activity) [3] | Pre-emergence action against PHBPU [4] | Post-emergence action against PHBPU [5] | Pre-emergence action against VIOTR [6] | Pre-emergence action against ABUTH (herbicidal activity) [7] | Post-emergence action against AMARE (herbicidal action in percent) [8] | Post-emergence action against VIOTR [9] | Pre-emergence action against MATIN [10] | Pre-emergence action against STEME [11] | Pre-emergence action against ECHCG (herbicidal activity) [12] | Post-emergence action against MATIN (herbicidal action in percent) [14] | Post-emergence action against STEME [15] | Pre-emergence action against VERPE [16] | Pre-emergence action against ALOMY (herbicidal activity in percent) [18] | Post-emergence action against VERPE [17] | other results
1 | CCn1nnnc1NC(=O)c1ccc(C(F)(F)F)c(C(=O)c2cc(F)cc(F)c2)c1Cl [2-286] | 80% | 80% | 100% | 80% | 90 | 100% | 80% | 90% | 80 | – | – | – | – | – | – | – | – | –
2 | CCn1nnnc1NC(=O)c1ccc(C(F)(F)F)c(C(=O)C2CCCCC2)c1SC [2-285] | 90% | – | 100% | – | – | 100% | 100% | 90% | – | 90% | 100% | 80% | 80% | 80 | 90% | – | – | Pre-emergence action against AVEFA (herbicidal activity) [13]: 80%
3 | CCC(=O)c1c(C)ccc(C(=O)Nc2nnnn2C)c1Cl [1-135] | – | – | – | – | – | – | – | – | – | – | – | – | – | – | – | – | – | pest or weed control at 320 g/ha ([10]; Tripleurospermum inodorum, 504 h): 90%; pest or weed control at 320 g/ha ([11]; Stellaria media, 504 h): 90%; pest or weed control at 320 g/ha ([12]; Echinochloa crus-galli, 504 h, read-out: Pre-emergence action against ECHCG (herbicidal activity)): 90%; pest or weed control at 80 g/ha ([2]; Echinochloa crus-galli, 504 h, read-out: Post-emergence action against ECHCG (herbicidal action in percent)): 80%; pest or weed control at 320 g/ha ([3]; Amaranthus retroflexus, 504 h, read-out: Pre-emergence action against AMARE (herbicidal activity)): 100%; pest or weed control at 80 g/ha ([17]; Veronica persica, 504 h): 80%; pest or weed control at 80 g/ha ([14]; Tripleurospermum inodorum, 504 h, read-out: Post-emergence action against MATIN (herbicidal action in percent)): 90%; pest or weed control at 80 g/ha ([8]; Amaranthus retroflexus, 504 h, read-out: Post-emergence action against AMARE (herbicidal action in percent)): 90%; pest or weed control at 80 g/ha ([15]; Stellaria media, 504 h): 100%; pest or weed control at 80 g/ha ([9]; Viola tricolor, 504 h): 90%; pest or weed control at 320 g/ha ([16]; Veronica persica, 504 h): 90%
4 | CCCn1nnnc1NC(=O)c1ccc(C(F)(F)F)c(C(=O)CC)c1C [3-15] | 90% | 100% | 100% | 80% | 90 | 100% | 100% | 90% | 90 | 100% | 100% | 100% | 100% | 100 | 100% | 80% | 90 | SETVI (Table B8, pre-emergence herbicidal activity) [19]: 100%; Post-emergence action against SETVI (herbicidal action in percent) [20]: 100%
5 | Cn1nnnc1NC(=O)c1ccc(Cl)c(C(=O)C2CCCC2)c1Cl [1-281] | – | – | 90% | – | 90 | 100% | – | 90% | 100 | 90% | 80% | – | 80% | 100 | 100% | – | 80 | –
6 | CCn1nnnc1NC(=O)c1ccc(Cl)c(C(=O)C2CCCC2)c1Cl [2-281] | – | – | 90% | – | 100 | 100% | – | 90% | 90 | 90% | 90% | – | 80% | 100 | 90% | – | 80 | –
7 | CCCn1nnnc1NC(=O)c1ccc(C)c(C(=O)C2CC2)c1C [3-3] | – | 100% | 100% | – | – | – | 80% | 100% | – | 100% | 90% | 100% | – | 80 | – | 90% | – | SETVI (Table B8, pre-emergence herbicidal activity) [19]: 90%; Pre-emergence action against CYPES (herbicidal activity) [21]: 90%
8 | CCCn1nnnc1NC(=O)c1ccc(C)c(C(=O)C2CC2)c1Cl [3-136] | – | 80% | 90% | 90% | 90 | – | 80% | 80% | 80 | 90% | – | 80% | 90% | 100 | – | – | 80 | –
9 | CCn1nnnc1NC(=O)c1ccc(C)c(C(=O)C2CC2)c1Cl [2-136] | – | – | 100% | 100% | 90 | – | 90% | – | 80 | 100% | 90% | – | 90% | 80 | 90% | 90% | – | –
